Assay results taken from ChEMBL document CHEMBL1201862, “PubChem BioAssay data set” (2004).
Calls of active or inactive are those of the source.

Key:
Trypsin = Trypsin (Sus scrofa, UniProt P00761); test: porcine trypsin inhibitors, dose response, selectivity assay for Rce1 protease inhibitor project, biochemical, quenched peptide fluorescence, cherry-pick (AID 488789)
CAAX prenyl protease 2 = target: T1, CAAX prenyl protease 2 (Homo sapiens, UniProt Q9Y256); test: human Rce1 protease inhibitors, dose response, biochemical, yeast membranes, quenched-peptide fluorescence, cherry-pick (AID 588849)
T1 sequence (Q9Y256 whole entry): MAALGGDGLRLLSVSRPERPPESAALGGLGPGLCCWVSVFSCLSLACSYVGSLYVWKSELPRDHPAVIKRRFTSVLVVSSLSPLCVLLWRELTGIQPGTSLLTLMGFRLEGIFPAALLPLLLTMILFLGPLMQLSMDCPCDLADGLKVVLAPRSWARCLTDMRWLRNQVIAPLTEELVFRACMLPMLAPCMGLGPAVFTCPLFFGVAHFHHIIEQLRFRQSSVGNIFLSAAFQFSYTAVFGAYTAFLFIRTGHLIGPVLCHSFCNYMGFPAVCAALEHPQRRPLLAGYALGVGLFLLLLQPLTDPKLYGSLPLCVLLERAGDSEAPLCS

[1] = target: T2, Sentrin-specific protease 8 (Homo sapiens, UniProt Q96LD8); test: SENP8 protease inhibitors, SAR follow-up, biochemical, luminescence (AID 504501); assay type: functional
T2 sequence (Q96LD8 whole entry): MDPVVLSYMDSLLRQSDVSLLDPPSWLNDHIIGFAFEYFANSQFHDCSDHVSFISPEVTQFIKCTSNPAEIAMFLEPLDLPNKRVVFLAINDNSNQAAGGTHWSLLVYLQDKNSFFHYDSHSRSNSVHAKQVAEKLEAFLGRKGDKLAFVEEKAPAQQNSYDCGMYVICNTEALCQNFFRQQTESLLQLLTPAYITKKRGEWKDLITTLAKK

Caspase-3 = target: T3, Caspase-3 (Homo sapiens, UniProt P42574); test: SAR Analysis of small molecule inhibitors of Sentrin-specific proteases (SENPs) using a Caspase-3 Selectivity assay. [Related pubchem assays (depositor defined):AID2540, AID2599, AID434973, AID489001]; assay type: functional
T3 sequence (P42574 whole entry): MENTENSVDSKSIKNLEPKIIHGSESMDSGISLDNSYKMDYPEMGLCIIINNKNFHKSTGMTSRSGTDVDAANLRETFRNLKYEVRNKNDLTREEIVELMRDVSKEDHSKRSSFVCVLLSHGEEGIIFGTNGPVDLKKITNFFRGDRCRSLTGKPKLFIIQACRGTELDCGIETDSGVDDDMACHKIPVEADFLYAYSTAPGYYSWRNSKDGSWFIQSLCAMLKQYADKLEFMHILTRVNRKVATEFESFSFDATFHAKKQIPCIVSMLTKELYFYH

[2] = target: T4, Sentrin-specific protease 6 (Homo sapiens, UniProt Q9GZR1); test: SAR Analysis of small molecule inhibitors of Sentrin-specific protease 6 (SENP6) using a Luminescent assay. [Related pubchem assays (depositor defined):AID2582, AID2599]; assay type: functional
T4 sequence (Q9GZR1 whole entry): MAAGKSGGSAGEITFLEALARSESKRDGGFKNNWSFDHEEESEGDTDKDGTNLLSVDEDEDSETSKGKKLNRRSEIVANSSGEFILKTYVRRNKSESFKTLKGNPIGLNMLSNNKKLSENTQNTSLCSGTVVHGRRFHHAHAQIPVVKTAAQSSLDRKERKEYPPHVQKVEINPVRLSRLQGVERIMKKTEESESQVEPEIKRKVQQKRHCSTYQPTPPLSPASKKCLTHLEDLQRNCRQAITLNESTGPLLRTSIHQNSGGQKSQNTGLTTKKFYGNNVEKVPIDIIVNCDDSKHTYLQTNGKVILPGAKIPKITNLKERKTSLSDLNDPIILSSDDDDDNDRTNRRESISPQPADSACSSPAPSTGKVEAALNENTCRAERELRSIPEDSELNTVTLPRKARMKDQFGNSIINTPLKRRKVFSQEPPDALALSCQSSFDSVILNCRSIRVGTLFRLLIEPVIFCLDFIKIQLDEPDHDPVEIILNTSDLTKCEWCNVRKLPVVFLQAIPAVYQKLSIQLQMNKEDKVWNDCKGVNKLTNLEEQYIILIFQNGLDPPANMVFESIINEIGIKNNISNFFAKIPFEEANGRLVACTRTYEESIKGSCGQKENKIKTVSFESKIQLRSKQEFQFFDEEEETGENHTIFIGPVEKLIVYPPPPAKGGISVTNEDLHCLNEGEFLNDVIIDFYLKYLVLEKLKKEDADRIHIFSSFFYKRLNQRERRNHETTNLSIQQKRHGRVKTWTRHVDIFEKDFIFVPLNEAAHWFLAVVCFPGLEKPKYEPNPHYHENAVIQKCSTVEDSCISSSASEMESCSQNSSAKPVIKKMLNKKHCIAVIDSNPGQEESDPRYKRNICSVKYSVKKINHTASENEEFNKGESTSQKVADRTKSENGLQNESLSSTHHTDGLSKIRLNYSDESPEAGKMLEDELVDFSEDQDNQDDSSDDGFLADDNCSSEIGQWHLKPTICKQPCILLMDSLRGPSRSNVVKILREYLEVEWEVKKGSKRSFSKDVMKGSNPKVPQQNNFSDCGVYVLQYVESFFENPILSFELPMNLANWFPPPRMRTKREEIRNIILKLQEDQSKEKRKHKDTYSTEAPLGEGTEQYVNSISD

[3] = target: T5, Sentrin-specific protease 7 (Homo sapiens, UniProt Q9BQF6); test: SENP7 protease inhibitors, SAR follow-up, biochemical, luminescence (AID 504497); assay type: functional
T5 sequence (Q9BQF6 whole entry): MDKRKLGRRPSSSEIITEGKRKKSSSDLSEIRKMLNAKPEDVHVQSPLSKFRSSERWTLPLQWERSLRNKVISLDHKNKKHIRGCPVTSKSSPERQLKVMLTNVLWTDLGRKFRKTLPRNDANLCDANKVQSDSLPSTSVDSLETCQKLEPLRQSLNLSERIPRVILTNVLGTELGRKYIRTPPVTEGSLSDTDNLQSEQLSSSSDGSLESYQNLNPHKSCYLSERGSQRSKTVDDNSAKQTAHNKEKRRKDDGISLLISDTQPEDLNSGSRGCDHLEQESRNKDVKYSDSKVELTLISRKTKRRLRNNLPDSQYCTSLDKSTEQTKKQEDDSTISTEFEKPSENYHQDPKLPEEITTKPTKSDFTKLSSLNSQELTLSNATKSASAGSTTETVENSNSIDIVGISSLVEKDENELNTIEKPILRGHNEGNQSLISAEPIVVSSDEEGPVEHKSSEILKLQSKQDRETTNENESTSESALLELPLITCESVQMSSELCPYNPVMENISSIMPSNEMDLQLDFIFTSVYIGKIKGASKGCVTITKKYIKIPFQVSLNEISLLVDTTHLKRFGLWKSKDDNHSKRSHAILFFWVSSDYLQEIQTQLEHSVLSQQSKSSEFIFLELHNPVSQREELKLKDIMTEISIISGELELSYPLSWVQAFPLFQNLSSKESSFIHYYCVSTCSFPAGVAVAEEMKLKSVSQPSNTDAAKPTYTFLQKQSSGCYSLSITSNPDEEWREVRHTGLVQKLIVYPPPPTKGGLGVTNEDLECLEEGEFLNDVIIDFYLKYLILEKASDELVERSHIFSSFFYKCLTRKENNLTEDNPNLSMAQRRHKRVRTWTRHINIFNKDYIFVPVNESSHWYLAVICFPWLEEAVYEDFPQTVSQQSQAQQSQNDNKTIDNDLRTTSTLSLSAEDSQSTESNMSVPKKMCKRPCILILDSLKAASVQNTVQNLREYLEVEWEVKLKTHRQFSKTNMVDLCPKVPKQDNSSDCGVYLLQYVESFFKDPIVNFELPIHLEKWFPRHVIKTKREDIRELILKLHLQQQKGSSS

[4] = target: T6, Short transient receptor potential channel 4 (Mus musculus, UniProt Q9QUQ5); test: mouse TRPC4 channel activators, dose response, cell-based, HEK293 TRPC4/mu-opioid, Fluo-4 calcium (AID 434937); assay type: functional
T6 sequence (Q9QUQ5 whole entry): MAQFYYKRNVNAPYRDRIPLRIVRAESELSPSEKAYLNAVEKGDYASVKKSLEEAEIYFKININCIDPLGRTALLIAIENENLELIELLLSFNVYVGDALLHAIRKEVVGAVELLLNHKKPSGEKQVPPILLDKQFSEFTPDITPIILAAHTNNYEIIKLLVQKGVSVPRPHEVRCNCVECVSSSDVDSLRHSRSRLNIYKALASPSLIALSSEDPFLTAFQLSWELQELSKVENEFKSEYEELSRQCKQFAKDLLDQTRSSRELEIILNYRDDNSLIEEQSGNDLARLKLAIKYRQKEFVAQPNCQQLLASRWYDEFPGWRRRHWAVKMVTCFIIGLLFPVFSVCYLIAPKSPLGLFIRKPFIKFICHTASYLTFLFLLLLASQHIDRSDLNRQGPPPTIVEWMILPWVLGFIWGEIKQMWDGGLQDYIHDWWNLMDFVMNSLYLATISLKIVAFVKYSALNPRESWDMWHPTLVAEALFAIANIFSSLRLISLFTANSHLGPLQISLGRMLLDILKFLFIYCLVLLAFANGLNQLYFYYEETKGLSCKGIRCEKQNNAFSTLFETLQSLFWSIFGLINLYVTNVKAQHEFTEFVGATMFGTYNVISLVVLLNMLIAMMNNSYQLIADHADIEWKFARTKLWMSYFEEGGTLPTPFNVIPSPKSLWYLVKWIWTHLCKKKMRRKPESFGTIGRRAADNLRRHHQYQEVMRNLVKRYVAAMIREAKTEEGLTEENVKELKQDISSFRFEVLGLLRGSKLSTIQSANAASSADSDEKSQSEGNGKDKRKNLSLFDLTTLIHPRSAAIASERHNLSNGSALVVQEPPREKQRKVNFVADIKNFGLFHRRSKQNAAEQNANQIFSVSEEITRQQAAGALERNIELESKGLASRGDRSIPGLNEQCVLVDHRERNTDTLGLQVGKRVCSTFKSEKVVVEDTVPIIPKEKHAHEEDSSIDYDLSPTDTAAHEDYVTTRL

[5] = target: Delta-type opioid receptor (Homo sapiens, UniProt P41143); test: Counterscreen for agonists of heterodimerization of the mu 1 (OPRM1) and delta 1 (OPRD1) opioid receptors: Luminescence-based cell-based high throughput dose response assay to identify agonists of OPRD1 homodimerization. [Related pubchem assays (depositor defined):AID504326, AID504355, AID504692, AID504904, AID504905]; assay type: functional
Sequence of Delta-type opioid receptor (P41143 whole entry): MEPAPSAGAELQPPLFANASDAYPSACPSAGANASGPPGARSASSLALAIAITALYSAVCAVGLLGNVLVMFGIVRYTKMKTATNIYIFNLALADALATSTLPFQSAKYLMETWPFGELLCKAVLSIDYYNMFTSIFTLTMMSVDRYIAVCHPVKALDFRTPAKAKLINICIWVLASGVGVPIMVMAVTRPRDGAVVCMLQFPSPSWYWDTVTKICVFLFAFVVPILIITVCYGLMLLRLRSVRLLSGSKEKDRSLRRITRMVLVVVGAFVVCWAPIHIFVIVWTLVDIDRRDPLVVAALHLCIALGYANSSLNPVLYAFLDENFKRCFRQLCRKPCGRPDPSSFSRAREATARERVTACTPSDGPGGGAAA

Mu-type opioid receptor = Mu-type opioid receptor (Homo sapiens, UniProt P35372); test: Counterscreen for agonists of heterodimerization of the mu 1 (OPRM1) and delta 1 (OPRD1) opioid receptors: Luminescence-based cell-based high throughput dose response assay to identify agonists of OPRM1 homodimerization.; assay type: functional;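 also: U2OS cells expressing OPRM1 and beta-arrestin as split beta-galactosidase partners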
Sequence of Mu-type opioid receptor (P35372 whole entry): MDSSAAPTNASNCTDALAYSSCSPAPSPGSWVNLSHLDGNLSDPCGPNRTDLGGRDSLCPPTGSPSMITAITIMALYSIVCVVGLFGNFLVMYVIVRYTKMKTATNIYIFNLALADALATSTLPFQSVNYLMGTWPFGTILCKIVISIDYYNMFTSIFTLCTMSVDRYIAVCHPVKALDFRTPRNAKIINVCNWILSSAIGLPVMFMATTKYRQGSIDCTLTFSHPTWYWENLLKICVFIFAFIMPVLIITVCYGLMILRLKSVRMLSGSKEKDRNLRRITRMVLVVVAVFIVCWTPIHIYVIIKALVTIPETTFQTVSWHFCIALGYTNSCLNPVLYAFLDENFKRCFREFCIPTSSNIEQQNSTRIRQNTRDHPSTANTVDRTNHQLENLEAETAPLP

[6] = target: 5-hydroxytryptamine receptor 5A (Homo sapiens, UniProt P47898); test: Counterscreen for agonists of OPRM1-OPRD1 heterodimerization: luminescence-based cell-based high throughput dose response assay to identify agonists of 5-hydroxytryptamine (serotonin) 5A receptor (HTR5A). [Related pubchem assays (depositor defined):AID504326, AID504355, AID504692, AID504904, AID504905]; assay type: functional
Sequence of 5-hydroxytryptamine receptor 5A (P47898 whole entry): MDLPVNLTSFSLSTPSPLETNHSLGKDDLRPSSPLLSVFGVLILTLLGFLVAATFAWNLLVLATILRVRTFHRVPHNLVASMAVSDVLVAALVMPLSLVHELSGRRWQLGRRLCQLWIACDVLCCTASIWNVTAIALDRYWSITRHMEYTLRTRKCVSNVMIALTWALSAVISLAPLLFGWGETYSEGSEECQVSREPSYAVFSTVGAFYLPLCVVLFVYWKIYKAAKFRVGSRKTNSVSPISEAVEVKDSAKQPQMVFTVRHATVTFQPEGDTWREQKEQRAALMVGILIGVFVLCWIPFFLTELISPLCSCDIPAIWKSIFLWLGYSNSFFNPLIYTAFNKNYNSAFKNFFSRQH

BJ = test: cytotoxicity toward Ras-transformed BJeLR fibroblasts, dose response, cell-based, alamar blue fluorescence, cherrypicked samples (AID 2631); assay type: functional; conditions: Homo sapiens;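 also: confirmatory dose-response assay in RAS-dependent BJ fibroblasts engineered with TERT, LT and ST, with cytotoxicity read by fluorescence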
INS1 = test: beta cell apoptosis inhibitors, cytokine rescue, dose response, luminescence, retest (AID 449756); assay type: functional, cell-based; conditions: Rattus norvegicus;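 also: cell death triggered by IL-1 beta plus TNF-alpha plus IFN-gamma mixture; protective hits raise ATP signal compared with cytokine alone wells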

Sequence of Trypsin (P00761 whole entry): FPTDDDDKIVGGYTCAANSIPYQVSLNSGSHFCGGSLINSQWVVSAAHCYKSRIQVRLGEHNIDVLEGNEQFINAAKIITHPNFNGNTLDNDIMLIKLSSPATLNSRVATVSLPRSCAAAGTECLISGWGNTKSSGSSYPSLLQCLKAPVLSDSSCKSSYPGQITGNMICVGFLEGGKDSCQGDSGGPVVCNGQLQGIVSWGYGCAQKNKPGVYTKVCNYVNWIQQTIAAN

Q: How did the AC50 (Trypsin) turn out when `Cc1cc(C)n2cc(CSC3=NCCS3)nc2n1` was run?
A: 8500 nM (active)

Q: And the AC50 (CAAX prenyl protease 2)?
A: 8530 nM (active)

Q: How did the IC50 [1] turn out when `CSc1ccc(/C=C/c2noc(-c3ccccc3O)n2)cc1` was run?
A: 1300 nM (active)

Q: What about the IC50 (Caspase-3) of the same molecule?
A: 1100 nM (active)

Q: And the IC50 [2]?
A: 1300 nM (active)

Q: What about the IC50 [3] of the same molecule?
A: 1300 nM (active)

Q: What does the source list for `CN(C)C(CN=C(S)Nc1cccc(Cl)c1)c1ccccc1` (stereo not drawn)?
A: EC50 [4]: 596 nM (active); EC50 [5]: 11500 nM (inactive); EC50 (Mu-type opioid receptor): 4640 nM (active); EC50 [6]: > 92500 nM (inactive)

Q: For `Clc1ccccc1-c1nnc(/C=C/c2cccs2)o1`, which IC50 [1] is on record?
A: 2060 nM (active)

Q: And the IC50 (Caspase-3)?
A: 1300 nM (active)

Q: What about the IC50 [2] of the same molecule?
A: 2010 nM (active)

Q: What about the IC50 [3] of the same molecule?
A: 1960 nM (active)

Q: What does the source list for `CN(C)c1ccc(/C=N/NC(=O)C(O)c2ccc(Br)cc2)cc1` (stereo not drawn)?
A: AC50 (Trypsin): 2800 nM (active); AC50 (CAAX prenyl protease 2): 2170 nM (active)

Q: For `OC(c1cc(-c2ccc(Cl)cc2)nc2ccccc12)C1CCCCN1` (stereo not drawn), which EC50 (BJ) is on record?
A: > 133000 nM (inactive)

Q: And the AC50 (INS1)?
A: 12200 nM (active)
